# Tests used:
# p110α Type Ia human PI3K = molecular target: T1, p110α Type Ia human PI3K (Homo sapiens, UniProt P42336); assay: In vitro PI3K enzyme assay (AlphaScreen), Test (a); format: biochemical; conditions: read-out: IC50 versus p110α Type Ia human PI3K
# T1 construct: full length DNA of each of the p110α, p110β and p110δ Type Ia human PI3K p110 isoforms; 6-His; made in house
# Description: (a) In Vitro PI3K Enzyme Assay
# The assay used AlphaScreen technology (Gray et al., Analytical Biochemistry, 2003, 313: 234-245) to determine the ability of test compounds to inhibit phosphorylation by recombinant Type I PI3K enzymes of the lipid PI(4,5)P2.
# DNA fragments encoding human PI3K catalytic and regulatory subunits were isolated from cDNA libraries using standard molecular biology and PCR cloning techniques. The selected DNA fragments were used to generate baculovirus expression vectors. In particular, full length DNA of each of the p110α, p110β and p110δ Type Ia human PI3K p110 isoforms (EMBL Accession Nos. HSU79143, S67334, Y10055 for p110α, p110β and p110δ respectively) were sub-cloned into a pDEST10 vector (Invitrogen Limited, Fountain Drive, Paisley, UK). The vector is a Gateway-adapted version of Fastbac1 containing a 6-His epitope tag. […]
# Biotinylated-DiC8-PI(3,4,5)P3 (50 nM; Cell Signals Inc., Catalogue No. 107), recombinant purified GST-Grp1 PH protein (2.5 μM) and AlphaScreen Anti-GST donor and acceptor beads (100 ng; Packard Bioscience Limited, Station Road, Pangbourne, Berkshire, UK, Catalogue No. 6760603M) were added and the assay plates were left for about 5 to 20 hours at room temperature in the dark. The resultant signals arising from laser light excitation at 680 nm were read using a Packard AlphaQuest instrument. […]
# [1] = tested on: phosphorylation of Serine 473 in Akt; assay: In vitro phospho-Ser473 Akt assay in MDA-MB-468 cells, Test (c); format: cell-based; conditions: Homo sapiens, read-out: IC50, inhibition of phosphorylation of Serine 473 in Akt
# Protocol: (c) In Vitro Phospho-Ser473 Akt Assay
# This assay determines the ability of test compounds to inhibit phosphorylation of Serine 473 in Akt as assessed using Acumen Explorer technology (TTP LabTech Limited, Royston, Herts, SG8 6EE, UK), a plate reader that can be used to rapidly quantitate features of images generated by laser-scanning.
# A MDA-MB-468 human breast adenocarcinoma cell line (LGC Promochem, Teddington, Middlesex, UK, Catalogue No. HTB-132) was routinely maintained at 37° C. with 5% CO2 up to a confluency of 70-90% in DMEM containing 10% FCS and 1% L-glutamine.
# For the assay, the cells were detached from the culture flask using ‘Accutase’ (Innovative Cell Technologies Inc., San Diego, Calif., USA; Catalogue No. AT104) using standard tissue culture methods and resuspended in media to give 5.5×10^4 cells per ml. Aliquots (90 μl) were seeded into each of the inner 60 wells of a black ‘Costar’ 96-well plate (Corning Inc., NY, USA; Catalogue No. 3904) to give a density of ˜5000 cells per well. Aliquots (90 μl) of culture media were placed in the outer wells to prevent edge effects. [An alternative cell handling procedure involved the maintenance of the cells in a ‘SelecT’ robotic device (The Automation Partnership, Royston, Herts SG8 5WY, UK). Cells were resuspended in media to give 5×10^4 cells per ml. […]
# T1 sequence (P42336 whole entry, canonical isoform): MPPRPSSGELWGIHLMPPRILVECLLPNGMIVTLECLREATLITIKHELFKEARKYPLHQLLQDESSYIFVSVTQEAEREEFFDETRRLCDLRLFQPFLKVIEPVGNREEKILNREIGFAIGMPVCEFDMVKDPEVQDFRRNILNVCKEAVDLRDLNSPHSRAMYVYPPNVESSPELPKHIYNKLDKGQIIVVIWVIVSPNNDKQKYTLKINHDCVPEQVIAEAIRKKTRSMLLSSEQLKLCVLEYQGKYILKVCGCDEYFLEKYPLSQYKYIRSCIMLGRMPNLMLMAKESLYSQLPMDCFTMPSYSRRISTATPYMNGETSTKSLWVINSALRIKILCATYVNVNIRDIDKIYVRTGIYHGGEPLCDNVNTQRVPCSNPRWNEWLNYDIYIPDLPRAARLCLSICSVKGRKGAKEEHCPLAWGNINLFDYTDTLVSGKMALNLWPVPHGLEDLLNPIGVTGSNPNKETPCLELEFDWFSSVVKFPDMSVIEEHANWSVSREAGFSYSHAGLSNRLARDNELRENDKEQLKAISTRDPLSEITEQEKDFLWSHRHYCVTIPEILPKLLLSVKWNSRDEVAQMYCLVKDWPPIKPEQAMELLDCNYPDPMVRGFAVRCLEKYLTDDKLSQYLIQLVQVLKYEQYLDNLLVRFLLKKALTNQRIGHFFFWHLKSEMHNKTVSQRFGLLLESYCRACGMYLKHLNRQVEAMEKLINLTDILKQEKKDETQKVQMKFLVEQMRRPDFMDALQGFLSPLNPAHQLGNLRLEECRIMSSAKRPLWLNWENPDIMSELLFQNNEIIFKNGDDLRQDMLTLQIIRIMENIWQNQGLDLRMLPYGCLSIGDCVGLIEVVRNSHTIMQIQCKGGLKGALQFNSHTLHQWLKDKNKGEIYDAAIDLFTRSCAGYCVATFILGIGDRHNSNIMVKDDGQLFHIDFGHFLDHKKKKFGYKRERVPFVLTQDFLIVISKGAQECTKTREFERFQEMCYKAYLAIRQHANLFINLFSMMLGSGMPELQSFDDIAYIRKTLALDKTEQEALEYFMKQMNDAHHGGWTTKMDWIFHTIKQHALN
# T1 sequence (P27986 whole entry partner, canonical isoform): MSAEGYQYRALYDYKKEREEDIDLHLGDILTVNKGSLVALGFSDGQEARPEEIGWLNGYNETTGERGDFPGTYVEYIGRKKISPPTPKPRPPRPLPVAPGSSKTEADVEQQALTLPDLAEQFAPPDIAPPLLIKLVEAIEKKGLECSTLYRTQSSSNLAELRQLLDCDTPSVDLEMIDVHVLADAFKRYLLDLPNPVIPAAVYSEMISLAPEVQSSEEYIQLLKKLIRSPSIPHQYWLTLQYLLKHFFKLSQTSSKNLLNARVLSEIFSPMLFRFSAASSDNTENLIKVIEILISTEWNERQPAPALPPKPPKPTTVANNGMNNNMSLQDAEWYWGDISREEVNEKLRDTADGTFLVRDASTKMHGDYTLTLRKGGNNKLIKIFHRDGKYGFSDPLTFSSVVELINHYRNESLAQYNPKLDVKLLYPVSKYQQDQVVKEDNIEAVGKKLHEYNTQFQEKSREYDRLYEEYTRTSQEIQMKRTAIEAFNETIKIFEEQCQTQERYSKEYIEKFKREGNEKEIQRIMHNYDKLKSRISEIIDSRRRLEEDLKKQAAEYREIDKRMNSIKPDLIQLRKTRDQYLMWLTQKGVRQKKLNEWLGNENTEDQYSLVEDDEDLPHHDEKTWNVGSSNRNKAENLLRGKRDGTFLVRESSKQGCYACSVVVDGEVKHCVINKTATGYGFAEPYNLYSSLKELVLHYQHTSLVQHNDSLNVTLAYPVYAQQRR
SMILES,IC50 (p110α Type Ia human PI3K),IC50 [1]
"NCCC1CCN(c2cc(N3CCOCC3)nc(-n3c(C(F)F)nc4ccccc43)n2)CC1 [Example 1, 4-[4-(2-aminoethyl)piperidin-1-yl]-2-(2-difluoromethylbenzimidazol-1-yl)-6-morpholinopyrimidine]",~200 nM,~10 nM
"O=C(NC1CCN(c2cc(N3CCOCC3)nc(-n3c(C(F)F)nc4ccccc43)n2)CC1)[C@@H]1CCCN1 [Example 3, 2-(2-difluoromethylbenzimidazol-1-yl)-6-morpholino-4-(4-prolylaminopiperidin-1-yl)pyrimidine]",~400 nM,~100 nM
